Test results published in patent US10316017B2, “COT modulators and methods of use thereof” (Gilead Sciences, Inc., priority 2015, dated 2019).

Tests used:
[1] = target: T1, human Cot catalytic domain (30-397 amino acids) (Homo sapiens, UniProt P41279); assay: High Throughput Cot Biochemical Assay (KinEASE TR-FRET); conditions: Cot biochemical HTRF (KinEASE TR-FRET) assay; read-out: IC50 HTRF
T1 construct: Purified recombinant human Cot catalytic domain (30-397 amino acids) was purchased from Cama Biosciences; purchased Cama Biosciences (so in the source)
T1 sequence (P41279 30-397): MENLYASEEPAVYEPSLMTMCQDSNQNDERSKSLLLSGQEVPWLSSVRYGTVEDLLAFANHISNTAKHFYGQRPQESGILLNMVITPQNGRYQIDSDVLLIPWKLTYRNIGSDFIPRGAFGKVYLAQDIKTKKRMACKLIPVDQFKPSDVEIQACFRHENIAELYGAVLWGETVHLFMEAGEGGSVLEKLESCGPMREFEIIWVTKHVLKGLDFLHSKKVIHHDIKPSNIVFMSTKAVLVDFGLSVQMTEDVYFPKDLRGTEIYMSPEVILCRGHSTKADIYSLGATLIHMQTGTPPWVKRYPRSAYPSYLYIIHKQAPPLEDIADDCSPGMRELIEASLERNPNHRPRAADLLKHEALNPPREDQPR
Summary of the method: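 Recombinant human Cot catalytic domain (aa 30-397), 5 nM, with 1 μM STK3 peptide and 400 μM ATP in MOPS pH 7.0 buffer with MgOAc, DTT, BSA, NP-40, glycerol, 0.1% DMSO. Phosphorylated XL665-peptide detected by Eu-[…] antibody TR-FRET.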

[2] = tested on: TNFα production in LPS-stimulated human monocytes; assay: Cot Monocyte TNFα Cell Based Assay; conditions: Homo sapiens, Monocyte, TNFα in LPS-stimulated human monocytes; read-out: EC50 TNF
Summary of the method: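 Human monocytes (5,000 cells/well) pretreated with compound for 1 hour at 37° C (0.5% DMSO), then stimulated with 50 pg/ml LPS for 4 hours. Total TNFα measured by TR-FRET after overnight antibody incubation at room temp, expressed as percent of control between unstimulated and stimulated cells.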

SMILES	IC50 [1] [nM]	EC50 [2] [nM]
CC(C)(C)N1CCC(n2cc([C@@H](Nc3cc(Cl)c4ncc(C#N)c(Nc5cnc(F)c(F)c5)c4c3)c3ccc(Cl)cc3)nn2)CC1 [Example 660, (S)-6-(((1-(1-(tert-butyl)piperidin-4-yl)-1H-1,2,3-triazol-4-yl)(4-chlorophenyl)methyl)amino)-8-chloro-4-((5,6-difluoropyridin-3-yl)amino)quinoline-3-carbonitrile]	14	807
CC(C)(C)N1CCC(n2cc([C@@H](Nc3cc(Cl)c4ncc(C#N)c(NC5CCOCC5)c4c3)c3ccc(Cl)cc3)nn2)CC1 [Example 662, (S)-6-(((1-(1-(tert-butyl)piperidin-4-yl)-1H-1,2,3-triazol-4-yl)(4-chlorophenyl)methyl)amino)-8-chloro-4-((tetrahydro-2H-pyran-4-yl)amino)quinoline-3-carbonitrile]	70	1270
CC1(Nc2c(C#N)cnc3c(Cl)cc(N[C@@H](c4ccc(Cl)cc4)c4cn(C5CCN(C(C)(C)C)CC5)nn4)cc23)CCCCC1 [Example 663, (S)-6-(((1-(1-(tert-butyl)piperidin-4-yl)-1H-1,2,3-triazol-4-yl)(4-chlorophenyl)methyl)amino)-8-chloro-4-((1-methylcyclohexyl)amino) quinoline-3-carbonitrile]	72	4740
CC(C)(C)N1CCC(n2cc([C@@H](Nc3cc(Cl)c4ncc(C#N)c(Nc5cc(Cl)c(Cl)cc5F)c4c3)c3ccc(Cl)cc3)nn2)CC1 [Example 664, (S)-6-(((1-(1-(tert-butyl)piperidin-4-yl)-1H-1,2,3-triazol-4-yl)(4-chlorophenyl)methyl)amino)-8-chloro-4-((4,5-dichloro-2-fluorophenyl)amino)quinoline-3-carbonitrile]	379	8150
N#Cc1cnc2c(Cl)cc(N[C@@H](c3ccccc3)c3cn(CCCF)nn3)cc2c1Nc1ccc(F)c(Cl)c1 [Example 666, (S)-8-chloro-4-((3-chloro-4-fluorophenyl)amino)-6-(((1-(3-fluoropropyl)-1H-1,2,3-triazol-4-yl)(phenyl)methyl)amino) quinoline-3-carbonitrile]	14	458
N#Cc1cnc2c(Cl)cc(N[C@@H](c3ccccc3)c3c[nH]nn3)cc2c1Nc1ccc(F)c(Cl)c1 [Example 667, (S)-8-chloro-4-((3-chloro-4-fluorophenyl)amino)-6-((phenyl(1H-1,2,3-triazol-4-yl)methyl)amino)quinoline-3-carbonitrile]	28	887
CC(C)(C)C(=O)OCn1cc([C@@H](Nc2cc(Cl)c3ncc(C#N)c(Nc4ccc(F)c(Cl)c4)c3c2)c2ccccc2)nn1 [Example 668, (S)-(4-(((8-chloro-4-((3-chloro-4-fluorophenyl)amino)-3-cyanoquinolin-6-yl)amino)(phenyl)methyl)-1H-1,2,3-triazol-1-yl)methyl pivalate]	97	1610
N#Cc1cnc2c(Cl)cc(N[C@@H](c3ccccc3)c3cn(CC(F)F)nn3)cc2c1Nc1ccc(F)c(Cl)c1 [Example 669, (S)-8-chloro-4-((3-chloro-4-fluorophenyl)amino)-6-(((1-(2,2-difluoroethyl)-1H-1,2,3-triazol-4-yl)(phenyl)methyl)amino) quinoline-3-carbonitrile]	39	1090
CC(C)(C)C(=O)c1cccc([C@H](Nc2cc(Cl)c3ncc(C#N)c(Nc4ccc(F)c(Cl)c4)c3c2)c2cn(C3CCN(C(C)(C)C)CC3)nn2)c1 [Example 671, (S)-6-(((1-(1-(tert-butyl)piperidin-4-yl)-1H-1,2,3-triazol-4-yl)(3-pivaloylphenyl)methyl)amino)-8-chloro-4-((3-chloro-4-fluorophenyl)amino)quinoline-3-carbonitrile]	10	682
CC(C)(C)C(O)c1cccc([C@H](Nc2cc(Cl)c3ncc(C#N)c(Nc4ccc(F)c(Cl)c4)c3c2)c2cn(C3CCN(C(C)(C)C)CC3)nn2)c1 (stereo partly drawn) [Example 672, 6-(((1S)-(1-(1-(tert-butyl)piperidin-4-yl)-1H-1,2,3-triazol-4-yl)(3-(1-hydroxy-2,2-dimethylpropyl)phenyl)methyl)amino)-8-chloro-4-((3-chloro-4-fluorophenyl)amino)quinoline-3-carbonitrile]	32	889
CC(C)(C)N1CCC(n2cc([C@@H](Nc3cc(Cl)c4ncc(C#N)c(Nc5ccc(F)c(Cl)c5)c4c3)c3cccc(C(N)=O)c3)nn2)CC1 [Example 673, (S)-3-((1-(1-(tert-butyl)piperidin-4-yl)-1H-1,2,3-triazol-4-yl)((8-chloro-4-((3-chloro-4-fluorophenyl)amino)-3-cyanoquinolin-6-yl)amino)methyl)benzamide]	2	1550
CCN(C)C(=O)c1cccc([C@H](Nc2cc(Cl)c3ncc(C#N)c(Nc4ccc(F)c(Cl)c4)c3c2)c2cn(C3CCN(C(C)(C)C)CC3)nn2)c1 [Example 674, (S)-3-((1-(1-(tert-butyl)piperidin-4-yl)-1H-1,2,3-triazol-4-yl)((8-chloro-4-((3-chloro-4-fluorophenyl)amino)-3-cyanoquinolin-6-yl)amino)methyl)-N-ethyl-N-methylbenzamide]	3	318
CC(C)(C)N1CCC(n2cc([C@@H](Nc3cc(Cl)c4ncc(C#N)c(Nc5ccc(F)c(Cl)c5)c4c3)c3cccc(C(=O)N4CCC4)c3)nn2)CC1 [Example 675, (S)-6-(((3-(azetidine-1-carbonyl)phenyl)(1-(1-(tert-butyl)piperidin-4-yl)-1H-1,2,3-triazol-4-yl)methyl)amino)-8-chloro-4-((3-chloro-4-fluorophenyl)amino)quinoline-3-carbonitrile]	1	81
CC(C)(C)N1CCC(n2cc([C@@H](Nc3cc(Cl)c4ncc(C#N)c(Nc5ccc(F)c(Cl)c5)c4c3)c3cccc(C(=O)N4CCCCC4)c3)nn2)CC1 [Example 676, (S)-6-(((1-(1-(tert-butyl)piperidin-4-yl)-1H-1,2,3-triazol-4-yl)(3-(piperidine-1-carbonyl)phenyl)methyl)amino)-8-chloro-4-((3-chloro-4-fluorophenyl)amino)quinoline-3-carbonitrile]	6	434

The next lines start with the values.

IC50 [1] [nM]	EC50 [2] [nM]	SMILES
27	12200	C[C@H](CNc1c(C#N)cnc2c(Cl)cc(N[C@@H](c3ccc(Cl)cc3)c3cn(C4CCN(C(C)(C)C)CC4)nn3)cc12)c1ccccc1 [Example 658, 6-(((S)-(1-(1-(tert-butyl)piperidin-4-yl)-1H-1,2,3-triazol-4-yl)(4-chlorophenyl)methyl)amino)-8-chloro-4-(((S)-2-phenylpropyl)amino)quinoline-3-carbonitrile]
95	5350	C[C@@H](CNc1c(C#N)cnc2c(Cl)cc(N[C@@H](c3ccc(Cl)cc3)c3cn(C4CCN(C(C)(C)C)CC4)nn3)cc12)c1ccccc1 [Example 659, 6-(((S)-(1-(1-(tert-butyl)piperidin-4-yl)-1H-1,2,3-triazol-4-yl)(4-chlorophenyl)methyl)amino)-8-chloro-4-(((R)-2-phenylpropyl)amino)quinoline-3-carbonitrile]
10	809	CC[C@@H](Nc1c(C#N)cnc2c(Cl)cc(N[C@@H](c3ccc(Cl)cc3)c3cn(C4CCN(C(C)(C)C)CC4)nn3)cc12)c1ccccc1 [Example 677, 6-(((S)-(1-(1-(tert-butyl)piperidin-4-yl)-1H-1,2,3-triazol-4-yl)(4-chlorophenyl)methyl)amino)-8-chloro-4-(((R)-1-phenylpropyl)amino)quinoline-3-carbonitrile]
1430	5690	Cc1ccc(CNc2c(C#N)cnc3c(Cl)cc(N[C@@H](c4ccc(Cl)cc4)c4cn(C5CCN(C(C)(C)C)CC5)nn4)cc23)cc1 [Example 678, (S)-6-(((1-(1-(tert-butyl)piperidin-4-yl)-1H-1,2,3-triazol-4-yl)(4-chlorophenyl)methyl)amino)-8-chloro-4-((4-methylbenzyl)amino)quinoline-3-carbonitrile]
355	12500	Cc1cccc(CNc2c(C#N)cnc3c(Cl)cc(N[C@@H](c4ccc(Cl)cc4)c4cn(C5CCN(C(C)(C)C)CC5)nn4)cc23)c1 [Example 679, (S)-6-(((1-(1-(tert-butyl)piperidin-4-yl)-1H-1,2,3-triazol-4-yl)(4-chlorophenyl)methyl)amino)-8-chloro-4-((3-methylbenzyl)amino)quinoline-3-carbonitrile]
44	6750	Cc1ccccc1CNc1c(C#N)cnc2c(Cl)cc(N[C@@H](c3ccc(Cl)cc3)c3cn(C4CCN(C(C)(C)C)CC4)nn3)cc12 [Example 680, (S)-6-(((1-(1-(tert-butyl)piperidin-4-yl)-1H-1,2,3-triazol-4-yl)(4-chlorophenyl)methyl)amino)-8-chloro-4-((2-methylbenzyl)amino)quinoline-3-carbonitrile]
434	12800	CC(C)(C)N1CCC(n2cc([C@@H](Nc3cc(Cl)c4ncc(C#N)c(NCCCc5ccccc5)c4c3)c3ccc(Cl)cc3)nn2)CC1 [Example 681, (S)-6-(((1-(1-(tert-butyl)piperidin-4-yl)-1H-1,2,3-triazol-4-yl)(4-chlorophenyl)methyl)amino)-8-chloro-4-((3-phenylpropyl)amino)quinoline-3-carbonitrile]
